Like-named read-outs stand apart in the source and are kept apart here.
Test system: human primary T-cells, IL-2 stimulated proliferation (JAK-1 and JAK-3 dependent; reported as JAK3 activity)
Test: Human primary T-cell proliferation stimulated by IL-2 (Example 3)
Type: cell-based
Settings: tested under conditions described in Example 3 (IL-2 stimulated human primary T-cell proliferation), read-out: ability to inhibit JAK3 activity, IC50 range (Table V)
Outline: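 Peripheral-blood human T-cells pre-activated via TCR/CD28, IL-2-starved overnight, then cultured 72 h at 37 °C with compound in Yssel's medium containing IL-2 (80 U/mL in cell suspension). Proliferation read as viable-cell ATP by CellTiter-Glo luminescence; reduction versus control taken as JAK pathway inhibition.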

Compound | IC50 (Homo sapiens, T-cell) [nM] | IC50 [nM]
Cc1ccc(F)c(Nc2ncc(C)c(Nc3ccc4oc(=O)[nH]c4c3)n2)c1 [Compound I-515, 5-(2-(2-fluoro-5-methylphenylamino)-5-methylpyrimidin-4-ylamino)benzo[d]oxazol-2(3H)-one] | < 500 | 
Cc1cc(Nc2ncc(C)c(Nc3ccc4oc(=O)[nH]c4c3)n2)cc(OC(F)F)c1 [Compound I-516, N2-(3-difluoromethoxy-5-methyl)phenyl-5-methyl-N4-(2-oxo-2,3-dihydro-1,3-benzoxazol-5-yl)-2,4-pyrimidinediamine] |  | < 500
Cc1cnc(Nc2cccc(C(F)(F)F)c2C)nc1Nc1ccc2oc(=O)[nH]c2c1 [Compound I-518, 5-[5-Methyl-2-(2-methyl-3-trifluoromethyl-phenylamino)-pyrimidin-4-ylamino]-3H-benzooxazol-2-one] | < 500 | 
CC(=O)c1ccc(F)c(Nc2ncc(C)c(Nc3ccc4oc(=O)[nH]c4c3)n2)c1 [Compound I-519, 5-(2-(5-acetyl-2-fluorophenylamino)-5-methylpyrimidin-4-ylamino)benzo[d]oxazol-2(3H)-one] | < 500 | 
Cc1cnc(Nc2ccccc2Cl)nc1Nc1ccc2oc(=O)[nH]c2c1 [Compound I-520, 5-(2-(2-chlorophenylamino)-5-methylpyrimidin-4-ylamino)benzo[d]oxazol-2(3H)-one] | 500 to 5000 | 
Cc1ccc(Cl)c(Nc2ncc(C)c(Nc3ccc4oc(=O)[nH]c4c3)n2)c1 [Compound I-521, 5-(2-(2-chloro-5-methylphenylamino)-5-methylpyrimidin-4-ylamino)benzo[d]oxazol-2(3H)-one] | < 500 | 
Cc1cnc(Nc2cc(C)c(C)c(C)c2)nc1Nc1cc(Cl)c2oc(=O)[nH]c2c1 [Compound I-522, N4-(7-chloro-2-oxo-2,3-dihydro-1,3-benzoxazol-5-yl)-5-methyl-N2-(3,4,5-trimethyl)phenyl-2,4-pyrimidinediamine] |  | < 500
Cc1cnc(Nc2cc(C(C)O)ccc2F)nc1Nc1ccc2oc(=O)[nH]c2c1 (stereo not shown) [Compound I-523, 5-(2-(2-fluoro-5-(1-hydroxyethyl)phenylamino)-5-methylpyrimidin-4-ylamino)benzo[d]oxazol-2(3H)-one] | < 500 | 
Cc1cnc(Nc2cc(C)c(C)c(C)c2)nc1Nc1cc(Cl)c2oc(=O)n(COP(=O)(OC(C)(C)C)OC(C)(C)C)c2c1 [Compound I-524, N4-{3-[bis(1,1-dimethylethoxy)]phosphinyloxymethyl-7-chloro-2-oxo-2,3-dihydro-1,3-benzoxazol-5-yl}-N2-(3,4,5-trimethyl)phenyl-5-methyl-2,4-pyrimidinediamine] |  | > 10000
Cc1cnc(Nc2cc(C)c(C)c(C)c2)nc1Nc1cc(Cl)c2oc(=O)n(COP(=O)(O)O)c2c1 [Compound I-525, N4-[7-chloro-3-(phosphonooxy)methyl-2-oxo-2,3-dihydro-1,3-benzoxazol-5-yl]-5-methyl-N2-(3,4,5-trimethyl)phenyl-2,4-pyrimidinediamine] |  | 500 to 5000
Cc1cnc(Nc2cc(C)c(I)c(C)c2)nc1Nc1ccc2oc(=O)[nH]c2c1 [Compound I-527, 5-[2-(4-Iodo-3,5-dimethyl-phenylamino)-5-methyl-pyrimidin-4-ylamino]-3H-benzooxazol-2-one] | < 500 | 
COc1cc(Nc2ncc(C)c(Nc3ccc4oc(=O)[nH]c4c3)n2)cc(OC)c1C [Compound I-529, 5-(2-(3,5-dimethoxy-4-methylphenylamino)-5-methylpyrimidin-4-ylamino)benzo[d]oxazol-2(3H)-one] | < 500 | 
Cc1cc(F)c(Nc2ncc(C)c(Nc3ccc4oc(=O)[nH]c4c3)n2)cc1C [Compound I-530, 5-(2-(2-fluoro-4,5-dimethylphenylamino)-5-methylpyrimidin-4-ylamino)benzo[d]oxazol-2(3H)-one] | < 500 | 
Cc1cnc(Nc2ccc(C)c(C(F)(F)F)c2F)nc1Nc1ccc2oc(=O)[nH]c2c1 [Compound I-532, 5-(2-(2-fluoro-4-methyl-3-(trifluoromethyl)phenylamino)-5-methylpyrimidin-4-ylamino)benzo[d]oxazol-2(3H)-one] | < 500 | 
COc1ccc(F)c(Nc2ncc(C)c(Nc3ccc4oc(=O)[nH]c4c3)n2)c1 [Compound I-533, 5-(2-(2-fluoro-5-methoxyphenylamino)-5-methylpyrimidin-4-ylamino)benzo[d]oxazol-2(3H)-one] | < 500 | 
COc1cc(Nc2ncc(C)c(Nc3ccc4oc(=O)[nH]c4c3)n2)cc(C)c1C [Compound I-535, 5-(2-(3-methoxy-4,5-dimethylphenylamino)-5-methylpyrimidin-4-ylamino)benzo[d]oxazol-2(3H)-one] | < 500 | 
COc1cc(C)cc(Nc2ncc(C)c(Nc3cc(C)c4oc(=O)n(COP(=O)(O)O)c4c3)n2)c1 [Compound I-536, Sodium (5-(2-(3-methoxy-5-methylphenylamino)-5-methylpyrimidin-4-ylamino)-7-methyl-2-oxobenzo[d]oxazol-3 (2H)-yl)methyl phosphate] | 5000 to 10000 | 
Cc1cnc(Nc2cc(C)c(C)c(F)c2)nc1Nc1ccc2oc(=O)[nH]c2c1 [Compound I-537, N2-(3,4-dimethyl-5-fluoro)phenyl-5-methyl-N4-(2-oxo-2,3-dihydro-1,3-benzoxazol-5-yl)-2,4-pyrimidinediamine] |  | < 500
COc1cc(Nc2ncc(C)c(Nc3ccc4oc(=O)n(COP(=O)(O)O)c4c3)n2)cc(C)c1F [Compound I-538, Sodium (5-(2-(4-fluoro-3-methoxy-5-methylphenylamino)-5-methylpyrimidin-4-ylamino)-2-oxobenzo[d]oxazol-3(2H)-yl)methyl phosphate] |  | 500 to 5000
Cc1cnc(Nc2ccc(N(C)C)nc2)nc1Nc1ccc2oc(=O)[nH]c2c1 [II-1, N4-(benzo[d]oxazol-2(3H)-on-5-yl)-N2-(6-dimethylaminopyridin-3-yl)-5-methylpyrimidine-2,4-diamine] | < 500 | 
Cc1cnc(Nc2ccc(N3C[C@H]4C[C@@H]3CN4C)nc2)nc1Nc1ccc2oc(=O)[nH]c2c1 [II-2, N4-(benzo[d]oxazol-2(3H)-on-5-yl)-N2-(6-((1R,4R)-5-methyl-2,5-diazabicyclo[2.2.1]heptan-2-yl)-pyridin-3-yl)-5-methylpyrimidine-2,4-diamine] | < 500 | 
Cc1cnc(Nc2ccc(N3CCCN(C)CC3)nc2)nc1Nc1ccc2oc(=O)[nH]c2c1 [II-3, N4-(benzo[d]oxazol-2(3H)-on-5-yl)-N2-(6-(4-methyl-1,4-diazepan-1-yl)pyridin-3-yl)-5-methylpyrimidine-2,4-diamine] | < 500 | 
CCCn1c(=O)oc2ccc(Nc3nc(Nc4ccc(N5CCN(C)CC5)nc4)ncc3C)cc21 [II-4, N4-(3-n-propylbenzo[d]oxazol-2(3H)-on-5-yl)-N2-(6-(4-methylpiperazin-1-yl)pyridin-3-yl)-5-methylpyrimidine-2,4-diamine] | < 500 | 
Cc1cnc(Nc2ccc(N3CCN(C(=O)OC(C)(C)C)CC3)nc2)nc1Nc1ccc2oc(=O)[nH]c2c1 [II-5, N4-(benzo[d]oxazol-2(3H)-on-5-yl)-N2-(6-(4-tert-butyloxycarbonylpiperazin-1-yl)pyridin-3-yl)-5-methylpyrimidine-2,4-diamine] | < 500 | 
Cc1cnc(Nc2ccc(N3CCC(C)CC3)nc2)nc1Nc1ccc2oc(=O)[nH]c2c1 [II-6, N4-(benzo[d]oxazol-2(3H)-on-5-yl)-N2-(6-(4-methylpiperidin-1-yl)pyridin-3-yl)-5-methylpyrimidine-2,4-diamine] | > 10000 | 
